Measured values as given in publication PMC9369794 (Molecules, 2022).
Converted amounts (≈) assume the structure as drawn.

Tests used:
[1] = Kinetic solubility in PBS pH 7.4; format: physicochemical; settings: aqueous buffer, kinetic from dmso stock, kinetic solubility after 2 h, at 37 °C in PBS, nominal 250 μM, read-out: Kin.Sol.
Description: On a 96-well polypropylene plate (Greiner bio-one) 7.5 μL stock solutions were added to 292.5 μL PBS (pH 7.4) to make a solution with the nominal concentration of 250 μM. For each sample 3 replicates were measured. […] After that, each sample was transferred into a filter plate (MSSBLPC, Multiscreen Filter plate, Merck kGaA) and filtered (Vaccum Manifold, Merck kGaA, Darmstadt, Germany). The filtrates were transferred into UV-Star microplates (Greiner bio-one) and acetonitrile (AcN) was added to each well to avoid precipitation. The final solvent ratio was AcN:PBS 70:30. UV-Vis spectra were collected for each replicate by a Multiskan Sky UV-plate reader (Thermo Scientific, Waltham, MA, USA) in a wavelength range of 250–700 nm, with 1 nm steps. After blank substraction, the kinetic solubility of the samples was determined based on absorption at λmax using a 5-point calibration curve for each sample recorded in 70:30 AcN:PBS solvent.
Limit of detection (LOD) and limit of quantification (LOQ) were calculated with Equations (1) and (2) respectively, based on UV-Vis spectral data:(1) LOD=3.3×σ/s (2) LOQ=10×σ/s where the σ value in the equations stands for the standard deviation of the absorption base line at 700 nm (where no sample-specific absorption was observed). The s value is the slope of the calibration curve recorded for each sample based on their absorption at λmax (Table 4.)

[2] = BBB-specific permeability assay (BBB-PAMPA); format: in vitro ADME; settings: PBS pH 7.4, 37 °C, read-out: BBB-PAMPA Pe
Description: In vitro, blood-brain barrier-specific (BBB) permeability studies were carried out using the PAMPA technique. First, solutions with the nominal concentration of 250 μM were prepared as described in Section 3.1. The solutions were shaken for 1 h at room temperature, at 300 rpm. For preparing the artificial BBB-specific membrane 16 mg BPLE and 8 mg cholesterol were dissolved in 600 μL dodecane. Each well of the donor plate (MultiscreenTM-IP, MAIPNTR10, pore size […], Merck kGaA) was coated with 5 μL lipid solution, and fitted into the acceptor plate containing 300 μL PBS (pH 7.4) with 2.5% DMSO, and 150–150 μL of the PBS solutions (made from the DMSO stock solutions) were put on the donor plate’s artificial membrane. The sandwich plate system was covered with a tissue of wet paper and a plastic lid to avoid evaporation of the solvent, and it was incubated at 37 °C for 4 h. In the end, the donor solutions were filtrated (Vacuum Manifold, Merck kGaA), and the initial 250 μM solutions (cD(0)), the donor (cD(t)) and acceptor solution (cA(t)) were analyzed by a Multiskan Sky UV-plate-reader (Thermo Scientific) in the wavelength range of 250–700 nm, with 1 nm steps.
BBB permeability was calculated using the effective permeability equation used for iso-pH conditions described by A. Avdeef:(3) Pe=−2.303/A·(t−τss)·(1/1+rv)·lg[−rv+(1+rv/1−MR)·cD(t)/cD(0)] […]

With `COc1ccc2[nH]cc(CCNC(C)=O)c2c1` [Melatonin, melatonin, reference compound] the solubility kinetic at 2 h [1] was 123 ± 9.4 µM (≈ 28.6 µg/mL) and the Papp at 4 h, 250 μM [2] was 2.97 ± 1.18 ×10⁻⁶ cm/s.
